Measured values from patent US20230117606A1, “COMPOSITIONS AND METHODS FOR THE TREATMENT OF INTRACELLULAR BACTERIAL INFECTIONS” (Endolytix Technology, Inc., priority 2020, published 2023).

Test system: M. abscessus
Test: Cell growth assay of M. abscessus with ABIα and antibiotic, Fractional Inhibitory Concentration (FIC) index
Assay type: cell-based, Mycobacterium abscessus
Settings: antibiotic in combination with ABIα; FIG. 5

Compound | effect by FIC index on attenuation of M. abscessus growth
NCC[C@H](O)C(=O)N[C@@H]1C[C@H](N)[C@@H](O[C@H]2O[C@H](CN)[C@@H](O)[C@H](O)[C@H]2O)[C@H](O)[C@H]1O[C@H]1O[C@H](CO)[C@@H](O)[C@H](N)[C@H]1O [amikacin] | synergistic effects
C[C@@H](O)[C@H]1C(=O)N2C(C(=O)[O-])=C(SC3Cn4cnc[n+]4C3)[C@H](C)[C@H]12 (stereo partly drawn) [biapenem] | synergistic effects
CO[C@@]1(NC(=O)Cc2cccs2)C(=O)N2C(C(=O)O)=C(COC(N)=O)CS[C@@H]21 [cefoxitin] | synergistic effects
